Key:
[1] = tested on: muscarinic antagonist sites; experiment: Binding to muscarinic antagonist sites using [^3 H]-quinuclidinyl benzylate (RQNB); settings: in vitro
Experimental: (§1) Sigma binding affinities are measured using [^3 H]-(+)-3-(3'-hydroxyphenyl) N (1'-propyl)piperidine, referred to in the following Table I as 3PPP. This test is carried out according to the procedures of B. L. Largent, et al, Proc. Natl. Acad. Sci., USA, 1984; 81:5618. The affinity of the compounds of the present invention for dopamine receptors was determined in vitro with the dopamine antagonist [^3 H]spiperone according to the procedure of S. Urwyler, et al, J. Neurochem. 1986; 46:1058. The ability of the compounds to bind muscarinic antagonist sites was determined in vitro using [^3 H]-quinuclidinyl benzylate (RQNB) according to the procedure of M. Watson, et al, J. Pharmacol. Exp. Ther. 1986; 237:411.

sigma binding site = experiment: Sigma binding affinity using [^3 H]-(+)-3-(3'-hydroxyphenyl) N (1'-propyl)piperidine ([^3 H]3PPP); settings: [^3 H]3PPP radioligand, in vitro
Experimental: as §1

dopamine receptors = experiment: Affinity for dopamine receptors with the dopamine antagonist [^3 H]spiperone (RBSP); format: binding; settings: in vitro
Experimental: as §1

| RQNB % Inhib at 10^-6 M [1] | IC50 (sigma binding site) | IC50 (dopamine receptors) | SMILES |
| --- | --- | --- | --- |
| 27% | 2.07 nM | > 1000 nM | CCCN1CC=CC(CCC(=NO)c2ccccc2)C1.O=C(O)C(=O)O (stereo not drawn) [1(e)(a), 1-Phenyl-3-(1,2,3,6-tetrahydro-1-propyl-3-pyridinyl)-1-propanone oxime oxalate] |
| 10% | 1.99 nM | > 1000 nM | CCCN1CCC=C(CCC(=NO)c2ccccc2)C1.O=C(O)C(=O)O [1(e)(b), 1-Phenyl-3-(1,2,5,6-tetrahydro-1-propyl-3-pyridinyl)-1-propanone oxime oxalate] |
| 6% | 6.49 nM | > 1000 nM | CCCN1CC=CC(CCC(=NO)c2ccc(OC)cc2)C1.O=C(O)C(=O)O (stereo not drawn) [2(e)(a), 1-(4-Methoxyphenyl)-3-(1,2,3,6-tetrahydro-1-propyl-3-pyridinyl)-1-propanoneoxime oxalate] |
| 9% | 2.39 nM | > 1000 nM | CCCN1CCC=C(CCC(=NO)c2ccc(OC)cc2)C1.O=C(O)C(=O)O [2(e)(b), 1-(4-Methoxyphenyl)-3-(1,2,5,6-tetrahydro-1-propyl-3-pyridinyl)-1-propanone oxime oxalate] |
